Data set [1] concerns the target 5-hydroxytryptamine receptor 2A (Rattus norvegicus, UniProt P14842). The data set can be described thus: Displacement of [3H]ketanserine from 5-HT2A receptor in rat cerebral cortex homogenates after 60 mins by liquid scintillation counting. Format: tissue-based.
Data set [2] has as its target T1, 5-hydroxytryptamine receptor 1A (Rattus norvegicus, UniProt P19327).
T1 sequence (P19327 whole entry): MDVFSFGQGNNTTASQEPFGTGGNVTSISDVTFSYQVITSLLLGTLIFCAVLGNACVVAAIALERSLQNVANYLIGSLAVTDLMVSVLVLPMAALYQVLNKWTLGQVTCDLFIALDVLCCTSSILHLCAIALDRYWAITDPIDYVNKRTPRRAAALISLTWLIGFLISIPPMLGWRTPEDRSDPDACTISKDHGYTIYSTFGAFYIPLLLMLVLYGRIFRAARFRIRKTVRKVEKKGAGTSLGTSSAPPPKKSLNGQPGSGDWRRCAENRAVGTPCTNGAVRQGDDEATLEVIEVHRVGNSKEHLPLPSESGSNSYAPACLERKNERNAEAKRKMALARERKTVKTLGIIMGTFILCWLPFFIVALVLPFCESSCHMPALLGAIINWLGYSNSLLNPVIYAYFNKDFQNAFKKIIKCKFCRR
The data set can be described thus: Displacement of [3H]8-OH-DPAT from 5-HT1A receptor in rat cerebral cortex homogenates after 60 mins by liquid scintillation counting. In kind it is tissue-based.

The next data set deals with D(2) dopamine receptor (Rattus norvegicus, UniProt P61169). The data set can be described thus: Displacement of [3H]spiperone from dopaminergic D2 receptor in rat striatum homogenates after 60 mins by liquid scintillation counting.
The test system of data set [3] is Mus musculus. Kind of data set: Neurotoxicity in Chinese Kun Ming mouse assessed as locomotor activity by measuring total distance traveled at 1 mg/kg, po administered 1 hr before test measured for 10 mins (reference value: 13881.4 +/- 8595.8 millimeter). Format: toxicity, organism-based. Particulars: in vivo.
Data set [4] deals with Mus musculus. The data set can be described thus: Neurotoxicity in Chinese Kun Ming mouse assessed as locomotor activity by measuring total distance traveled at 10 mg/kg, po administered 1 hr before test measured for 10 mins (reference value: 13881.4 +/- 8595.8 millimeter). Format: toxicity, organism-based. Particulars: in vivo.
Data set [5] has as its system Mus musculus. The data set can be described thus: Neurotoxicity in Chinese Kun Ming mouse assessed as locomotor activity by measuring total distance traveled at 3 mg/kg, po administered 1 hr before test measured for 10 mins (reference value: 13881.4 +/- 8595.8 millimeter). In kind it is toxicity, organism-based. Particulars: in vivo.
The target in data set [6] is Voltage-gated inwardly rectifying potassium channel KCNH2 (Homo sapiens, UniProt Q12809). The data set can be described thus: Inhibition of human ERG expressed in HEK293 cells by whole-cell patch clamp method. Format: cell-based. (In general: In patch-clamp work, channel activity is measured electrically.)
Data set [7] is described as follows: Acute toxicity in Sprague-Dawley rat. In kind it is organism-based. Particulars: in vivo.
Data set [8] has as its system Mus musculus. The data set can be described thus: Toxicity in po dosed Chinese Kun Ming mouse assessed as induction of catalepsy by measuring immobility score of 30 seconds administered 30 mins before first assessment. In kind it is organism-based. Particulars: in vivo, 0.5 h.
Data set [9] has as its system Mus musculus. The data set can be described thus: Antipsychotic activity in po dosed Chinese Kun Ming mouse assessed as inhibition of apomorphine-induced climbing administered 30 mins before apomorphine challenge measured up to 30 mins. Format: functional.
The subject of data set [10] is Mus musculus. Kind of data set: Antipsychotic activity in po dosed Chinese Kun Ming mouse assessed as inhibition of DOI-induced head twitch administered 60 mins before DOI challenge measured up to 15 mins. In kind it is functional.
The subject of data set [11] is Mus musculus. The data set can be described thus: Neurotoxicity in Chinese Kun Ming mouse assessed as locomotor activity by measuring total distance traveled at 1 mg/kg, po administered 1 hr before test measured for 10 mins (reference value: 13415.6 +/- 9555.8 millimeter). Format: toxicity, organism-based. Particulars: in vivo.
For data set [12], the system named is Mus musculus. Kind of data set: Neurotoxicity in Chinese Kun Ming mouse assessed as locomotor activity by measuring total distance traveled at 0.1 mg/kg, po administered 1 hr before test measured for 10 mins (reference value: 13415.6 +/- 9555.8 millimeter). Format: toxicity, organism-based. Particulars: in vivo.
In data set [13] the test system is Mus musculus. Kind of data set: Neurotoxicity in Chinese Kun Ming mouse assessed as locomotor activity by measuring total distance traveled at 0.3 mg/kg, po administered 1 hr before test measured for 10 mins (reference value: 13415.6 +/- 9555.8 millimeter). Format: toxicity, organism-based. Particulars: in vivo.

Molecules are shown by their SMILES.

Sequence of 5-hydroxytryptamine receptor 2A (P14842 whole entry): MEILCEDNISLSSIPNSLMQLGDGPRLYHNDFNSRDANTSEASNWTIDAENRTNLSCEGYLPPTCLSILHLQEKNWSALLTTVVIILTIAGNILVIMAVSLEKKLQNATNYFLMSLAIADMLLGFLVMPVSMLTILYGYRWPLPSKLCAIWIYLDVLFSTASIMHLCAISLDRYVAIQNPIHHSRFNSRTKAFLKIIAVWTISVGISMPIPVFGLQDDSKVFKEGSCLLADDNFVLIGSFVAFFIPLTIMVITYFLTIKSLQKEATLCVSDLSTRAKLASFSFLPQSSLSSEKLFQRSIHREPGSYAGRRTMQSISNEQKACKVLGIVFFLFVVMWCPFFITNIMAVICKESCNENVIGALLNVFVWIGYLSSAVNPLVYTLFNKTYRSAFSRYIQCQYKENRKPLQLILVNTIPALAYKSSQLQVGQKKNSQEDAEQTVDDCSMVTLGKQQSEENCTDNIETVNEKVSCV
Sequence of D(2) dopamine receptor (P61169 whole entry): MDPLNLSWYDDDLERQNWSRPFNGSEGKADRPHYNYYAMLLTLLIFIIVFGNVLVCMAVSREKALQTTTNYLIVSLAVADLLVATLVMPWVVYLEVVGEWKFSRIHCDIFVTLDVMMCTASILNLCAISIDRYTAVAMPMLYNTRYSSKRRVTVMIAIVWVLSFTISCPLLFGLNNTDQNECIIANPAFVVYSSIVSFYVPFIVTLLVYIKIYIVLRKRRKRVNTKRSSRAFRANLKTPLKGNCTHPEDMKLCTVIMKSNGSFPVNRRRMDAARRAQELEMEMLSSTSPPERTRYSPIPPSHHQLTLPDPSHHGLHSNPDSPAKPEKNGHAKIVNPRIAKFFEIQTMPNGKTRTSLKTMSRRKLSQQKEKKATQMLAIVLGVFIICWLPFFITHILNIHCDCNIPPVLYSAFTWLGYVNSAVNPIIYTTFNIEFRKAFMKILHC
Sequence of Voltage-gated inwardly rectifying potassium channel KCNH2 (Q12809 whole entry): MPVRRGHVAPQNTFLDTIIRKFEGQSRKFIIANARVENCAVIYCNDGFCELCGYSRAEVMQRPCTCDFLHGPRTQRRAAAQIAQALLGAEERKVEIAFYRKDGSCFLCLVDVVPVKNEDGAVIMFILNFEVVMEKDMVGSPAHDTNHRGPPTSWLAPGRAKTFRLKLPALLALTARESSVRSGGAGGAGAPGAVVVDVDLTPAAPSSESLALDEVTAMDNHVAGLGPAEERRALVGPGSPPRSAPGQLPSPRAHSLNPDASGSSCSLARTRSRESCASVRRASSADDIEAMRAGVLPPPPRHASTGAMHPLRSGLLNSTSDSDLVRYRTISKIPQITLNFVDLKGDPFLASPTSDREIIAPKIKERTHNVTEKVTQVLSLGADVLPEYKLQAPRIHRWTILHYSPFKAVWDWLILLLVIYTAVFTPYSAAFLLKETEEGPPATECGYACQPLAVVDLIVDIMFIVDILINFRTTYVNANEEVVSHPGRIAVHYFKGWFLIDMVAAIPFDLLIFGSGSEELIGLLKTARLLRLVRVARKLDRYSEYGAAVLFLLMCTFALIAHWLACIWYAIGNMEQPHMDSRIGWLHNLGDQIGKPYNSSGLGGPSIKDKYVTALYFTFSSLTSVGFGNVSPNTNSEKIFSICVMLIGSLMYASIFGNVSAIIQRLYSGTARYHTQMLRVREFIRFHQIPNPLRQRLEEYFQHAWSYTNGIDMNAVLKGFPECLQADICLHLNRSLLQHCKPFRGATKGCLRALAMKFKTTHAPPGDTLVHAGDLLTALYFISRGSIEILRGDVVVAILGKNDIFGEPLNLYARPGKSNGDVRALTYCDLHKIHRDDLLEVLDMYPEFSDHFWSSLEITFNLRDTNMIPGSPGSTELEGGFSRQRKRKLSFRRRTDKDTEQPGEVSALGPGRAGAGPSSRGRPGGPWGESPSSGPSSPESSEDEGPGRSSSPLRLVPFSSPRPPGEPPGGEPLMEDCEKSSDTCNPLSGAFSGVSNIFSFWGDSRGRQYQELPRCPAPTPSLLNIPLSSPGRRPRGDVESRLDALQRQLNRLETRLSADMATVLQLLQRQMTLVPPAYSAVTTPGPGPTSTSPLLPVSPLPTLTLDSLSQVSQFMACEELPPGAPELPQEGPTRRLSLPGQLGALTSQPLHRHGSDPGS

Broadly, the Ki is the dissociation constant of the complex between target and ligand, obtained from inhibition or displacement. A lower Ki goes with higher affinity. `c1cnc(N2CCN(CCCOc3ccc(-c4nc5ccccc5o4)cc3)CC2)nc1`: the results for the Ki (in [1]; in data set [2]; at D(2) dopamine receptor) were 0.0385 µM, 0.0562 µM and 0.198 µM, respectively.

With `COc1cc(OCCCN2CCC(c3noc4cc(F)ccc34)CC2)ccc1-c1nc2ccccc2o1`, the Ki in data set [1] turned out to be 0.0722 µM; in data set [2], 1.56 µM; at D(2) dopamine receptor, 1.19 µM.

As for `O=C1CN=C(c2ccccc2Cl)c2cc([N+](=O)[O-])ccc2N1` [CLONAZEPAM], the Activity came out at 13188.4 mm in the data set with Mus musculus [3], 655.7 mm with Mus musculus [4] and 4784.1 mm in the data set on Mus musculus [5].

On to `Clc1cccc(N2CCN(CCCOc3ccc(-c4nc5ccccc5o4)cc3)CC2)c1Cl`, for which the Ki is 2.89 µM in data set [1], over 10 µM in data set [2] and over 10 µM at D(2) dopamine receptor.

With `COc1ccccc1N1CCN(CCCOc2ccc(-c3nc4ccccc4[nH]3)cc2)CC1`, the values for the Ki (in data set [1]; in data set [2]; at D(2) dopamine receptor) were 0.109 µM, 0.258 µM and 0.0163 µM, respectively.

In the case of `Fc1ccc2c(C3CCN(CCCCOc4ccc(-c5nc6ccccc6o5)cc4)CC3)noc2c1`, the results for the Ki (in data set [1]; in data set [2]; on D(2) dopamine receptor) were 0.729 µM, 0.996 µM and 2.2 µM, respectively.

With `Cc1cc(-c2nc3ccccc3o2)ccc1OCCCN1CCC(c2noc3cc(F)ccc23)CC1`, the Ki in data set [1] came to 0.0411 µM; in [2], 2.14 µM; on D(2) dopamine receptor, 1.59 µM.

With `c1ccc(N2CCN(CCCOc3ccc(-c4nc5ccccc5o4)cc3)CC2)cc1`, the inhibition constant (Ki) in [1] was 4.68 µM; in [2] it was over 10 µM; on D(2) dopamine receptor, over 10 µM.

Turning to `c1ccc2c(c1)OCC(CN1CCN(CCCOc3ccc(-c4nc5ccccc5o4)cc3)CC1)O2` (stereo unspecified), the Ki was 1.42 µM in data set [1], over 10 µM in [2] and over 10 µM on D(2) dopamine receptor.

For the molecule `Fc1ccc2c(C3CCN(CCCOc4ccc(-c5nc6ccccc6o5)c(F)c4)CC3)noc2c1`, the Ki in data set [1] came to 0.0237 µM; in data set [2], 0.232 µM; on D(2) dopamine receptor, 0.143 µM.

For orientation: IC50 means the point on the concentration scale where inhibition reaches its midpoint. Read a high IC50 as a need for much substance. By LD50 is commonly meant the dose at which mortality reaches 50%. Low readings indicate a more toxic substance, high ones a less toxic substance. In the case of `CC(c1ccc(OCCCN2CCC(c3noc4cc(F)ccc34)CC2)cc1)c1nc2ccccc2o1` (stereo unspecified), in data set [6], the IC50 was 1.01 µM. Besides, the figures for the inhibitory constant (Ki) (in data set [1]; in [2]; on D(2) dopamine receptor) were 0.0305 µM, 0.0896 µM and 0.0603 µM, respectively. The median lethal dose (LD50) in [7] came out at 614 mg/kg.

Consider `Fc1ccc2c(C3CCN(CCCOc4ccc(CCc5nc6ccccc6o5)cc4)CC3)noc2c1`, for which, in data set [6], the IC50 was 0.63 µM. Also, the Ki amounted to 0.0381 µM in data set [1], 0.0311 µM in [2] and 0.0531 µM at D(2) dopamine receptor. Moreover, the LD50 in [7] was 398 mg/kg.

As a reminder, the ED50 is the midpoint of the dose-response relation. For the molecule `CN1CCN(C2=Nc3cc(Cl)ccc3Nc3ccccc32)CC1` [CLOZAPINE], the ED50 came out at 50.5 mg/kg with Mus musculus [8], 3.51 mg/kg in the data set with Mus musculus [9] and 4.92 mg/kg in the data set with Mus musculus [10].

For `O=C(c1ccc(F)cc1F)C1CCN(CCCOc2ccc(-c3nc4ccccc4o3)cc2)CC1`, the Ki in data set [1] was 0.199 µM; in [2], 0.114 µM; at D(2) dopamine receptor it was 0.408 µM. In addition, the LD50 in [7] was 369 mg/kg.

On to `Fc1ccc2c(C3CCN(CCCOc4ccc(-c5nc6ccccc6s5)cc4)CC3)noc2c1`, for which the Ki was 1.27 µM in [1], 1.76 µM in data set [2] and over 10 µM at D(2) dopamine receptor.

For `c1ccc(N2CCN(CCCOc3ccc(-c4nc5ccccc5o4)cc3)CC2)nc1`, the Ki in data set [1] is 2.34 µM; in [2] it was 1.99 µM; at D(2) dopamine receptor it was over 10 µM.

Take `Fc1ccc2c(C3CCN(CCCOc4cccc(-c5nc6ccccc6o5)c4)CC3)noc2c1`: the Ki (in [1]; in data set [2]; at D(2) dopamine receptor) was over 10 µM throughout.

On to `c1ccc2oc(-c3ccc(OCCCN4CCN(c5nsc6ccccc56)CC4)cc3)nc2c1`, for which the Ki in data set [1] is 0.0169 µM; in data set [2] it was 0.97 µM; on D(2) dopamine receptor, 0.879 µM.

Turning to `c1ccc2oc(-c3ccc(OCCCN4CCC(c5nc6ccccc6o5)CC4)cc3)nc2c1`, the Ki in [1] was 0.243 µM; in data set [2], 0.568 µM; at D(2) dopamine receptor, over 10 µM.

As to `FC(F)(F)c1cccc(N2CCN(CCCOc3ccc(-c4nc5ccccc5o4)cc3)CC2)c1`, the Ki in data set [1] is 4.48 µM; in [2], over 10 µM; on D(2) dopamine receptor, over 10 µM.

Regarding `Cc1nc2n(c(=O)c1CCN1CCC(c3noc4cc(F)ccc34)CC1)CCCC2` [RISPERIDONE], the ED50 worked out at 1.3 mg/kg in the data set with Mus musculus [8], 0.034 mg/kg in the data set on Mus musculus [9] and 0.045 mg/kg in the data set with Mus musculus [10].

For the molecule `c1ccc2oc(-c3ccc(OCCCN4CCC(c5nc6ccccc6s5)CC4)cc3)nc2c1`, the Ki in [1] is 0.281 µM; in data set [2] it was 0.146 µM; at D(2) dopamine receptor, over 10 µM.

`Cc1ccc2oc(-c3ccc(OCCCN4CCC(c5noc6cc(F)ccc56)CC4)cc3)nc2c1`: the Ki is over 10 µM in data set [1], 0.0763 µM in data set [2] and over 10 µM on D(2) dopamine receptor.

Regarding `COc1ccccc1N1CCN(CCCOc2ccc(-c3nc4ccccc4o3)cc2)CC1`, the Ki in data set [1] stood at 0.0293 µM; in [2], 0.0468 µM; on D(2) dopamine receptor, 0.467 µM.

As for `O=C(CCCN1CCC(O)(c2ccc(Cl)cc2)CC1)c1ccc(F)cc1` [HALOPERIDOL], the figures for the Activity with Mus musculus [11], with Mus musculus [12] and in the data set on Mus musculus [13] were 744.5 mm, 8980.9 mm and 3580.6 mm, respectively.

With `Fc1ccc2c(C3CCN(CCCOc4ccc(-c5nc6cc(Cl)ccc6o5)cc4)CC3)noc2c1`, the Ki in data set [1] is 0.135 µM; in [2], over 10 µM; at D(2) dopamine receptor, 0.66 µM.

Consider `Cc1cccc(N2CCN(CCCOc3ccc(-c4nc5ccccc5o4)cc3)CC2)c1C`, for which the Ki was 2.14 µM in [1], 4.69 µM in data set [2] and over 10 µM at D(2) dopamine receptor.

(Values after ChEMBL document CHEMBL3632483, “Synthesis and pharmacological evaluation of piperidine (piperazine)-substituted benzoxazole derivatives as multi-target antipsychotics” (Bioorg Med Chem Lett, 2015).)
